Measured values as given in patent US9708309B2, “Arylcyclopropylamine based demethylase inhibitors of LSD1 and their medical use” (Oryzon Genomics S.A., priority 2010, dated 2017).
Entries after “also recorded” stand apart in the source; their conditions may differ.

Columns and labels:
[1] = biological target: Human recombinant MAO-A (Homo sapiens (Human), UniProt P21397); assay: biochemical
Excerpt: Human recombinant monoamine oxidase proteins MAO-A and MAO-B were purchased from Sigma Aldrich. […] In order to monitor MAO enzymatic activities and/or their inhibition rate by inhibitor(s) of interest, a fluorescent-based (inhibitor)-screening assay was set up. 3-(2-Aminophenyl)-3-oxopropanamine (kynuramine dihydrobromide, Sigma Aldrich), a non fluorescent compound was chosen as a substrate. Kynuramine is a non-specific substrate for both MAOs activities. While undergoing oxidative deamination by MAO activities, kynuramine is converted into 4-hydroxyquinoline (4-HQ), a resulting fluorescent product.
The monoamine oxidase activity was estimated by measuring the conversion of kynuramine into 4-hydroxyquinoline. Assays were conducted in 96-well black plates with clear bottom (Corning) in a final volume of 100 μL. […]
After leaving the enzyme(s) interacting with the inhibitor, 60 to 90 μM of kynuramine was added to each reaction for MAO-B and MAO-A assay respectively, and the reaction was left for 1 hour at 37° C. in the dark. […] The conversion of kynuramine to 4-hydroxyquinoline, was monitored by fluorescence (excitation at 320 nm, emission at 360 nm) using a microplate reader (Infinite 200, Tecan). Arbitrary units were used to measure levels of fluorescence produced in the absence and/or in the presence of inhibitor.
The Ki (IC50) of each inhibitor was determined at Vmax/2.

[2] = biological target: LSD1 protein (Homo sapiens (Human), UniProt O60341); details: 25° C., H3-K4me2 peptide
Description: The kinetic parameters of LSD1 demethylase inhibition were obtained using the peroxidase-coupled reaction method. […] The final DMSO concentration was 0.7% and constant in all assay wells.
The conversion of the Amplex® Red reagent to resorufin due to generation of H2O2 was continuously monitored by fluorescence (excitation at 540 nm, emission at 590 nm) using a microplate reader (Infinite 200, Tecan). A solution of 1 μM H2O2 was used to calibrate the fluorescence signal and the temperature was kept constant at 25° C.
Briefly, progress curves obtained in the presence of test compound were fit to derive kobs (k) based on the following equation:
The kobs values were then used to derive the kinetic constant by using the following equations (Kitz and Wilson analysis):

[3] = biological target: MAO-B (Homo sapiens (Human), UniProt P27338); details: ratio of kinact/KI MAO-B over MAO-A
Chain of MAO-B (P27338 whole entry): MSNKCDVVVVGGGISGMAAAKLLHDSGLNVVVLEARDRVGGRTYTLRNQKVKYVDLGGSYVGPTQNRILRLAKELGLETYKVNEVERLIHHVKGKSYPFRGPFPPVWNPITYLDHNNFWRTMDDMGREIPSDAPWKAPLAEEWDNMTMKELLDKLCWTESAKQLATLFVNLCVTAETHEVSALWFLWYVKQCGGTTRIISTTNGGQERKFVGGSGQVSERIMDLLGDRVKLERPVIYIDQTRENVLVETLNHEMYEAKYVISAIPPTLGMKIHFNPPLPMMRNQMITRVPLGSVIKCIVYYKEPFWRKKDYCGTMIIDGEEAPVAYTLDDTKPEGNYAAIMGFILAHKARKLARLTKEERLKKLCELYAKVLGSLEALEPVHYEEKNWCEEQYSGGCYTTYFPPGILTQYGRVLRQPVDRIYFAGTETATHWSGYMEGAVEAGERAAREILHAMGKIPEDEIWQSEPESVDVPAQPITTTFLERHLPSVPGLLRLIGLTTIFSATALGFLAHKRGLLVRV
Description: For MAO-B, the protein was kept between 1.8 and 3.6 ng/ul (Sigma M7441) and kynuramine (Sigma) at 50 uM was used as substrate.

Chain of Human recombinant MAO-A (P21397 whole entry): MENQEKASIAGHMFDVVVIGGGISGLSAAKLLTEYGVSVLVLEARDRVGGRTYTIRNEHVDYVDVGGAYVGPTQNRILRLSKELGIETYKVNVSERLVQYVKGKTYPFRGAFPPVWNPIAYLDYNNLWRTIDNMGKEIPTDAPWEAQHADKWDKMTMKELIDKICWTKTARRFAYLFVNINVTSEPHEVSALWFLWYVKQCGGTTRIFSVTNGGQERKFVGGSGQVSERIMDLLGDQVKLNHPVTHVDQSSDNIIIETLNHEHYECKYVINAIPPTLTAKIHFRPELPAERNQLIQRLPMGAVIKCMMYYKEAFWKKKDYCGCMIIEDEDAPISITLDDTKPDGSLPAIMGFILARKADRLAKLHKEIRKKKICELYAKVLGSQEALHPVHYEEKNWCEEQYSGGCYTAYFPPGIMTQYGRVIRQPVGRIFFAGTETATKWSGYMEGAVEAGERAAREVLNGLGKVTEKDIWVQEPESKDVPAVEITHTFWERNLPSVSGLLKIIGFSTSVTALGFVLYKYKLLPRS

Ki [1]	Catalytic efficiency kinact/KI, LSD1 [2]	selectivity index kinact/KI for MAO-B/MAO-A [3]	Structure (SMILES)
1 to 40 µM	–	–	Nc1nnc(CN[C@H]2C[C@@H]2c2ccc(OCc3ccc(Cl)cc3)cc2)o1 (relative stereo) [Example 14, 5-((((trans)-2-(4-((4-chlorobenzyl)oxy)phenyl)cyclopropyl)amino)methyl)-1,3,4-oxadiazol-2-amine]
1 to 40 µM	–	–	Nc1nnc(CN[C@H]2C[C@@H]2c2ccc(OCc3cccc(F)c3)cc2)o1 (relative stereo) [Example 12, 5-((((trans)-2-(4-((3-fluorobenzyl)oxy)phenyl)cyclopropyl)amino)methyl)-1,3,4-oxadiazol-2-amine]
–	not active; also recorded: Inactive	120	C#CCN[C@@H]1CCc2ccccc21 [Rasagiline]
